Measured values as given in PMC3282010 (The AAPS Journal, 2011).
Like-named read-outs stand apart in the source and are kept apart here. Marks after values point to notes of the source that are not given here.

Tests used:
[1] = in humans, after the first day of co-administration of Cs; cited from earlier work
OATP1B1 [2] = biological target: T1, OATP1B1 (Homo sapiens, UniProt Q9Y6L6)
[3] = for Total plasma concentration at steady-state: healthy subjects, 10-mg once-daily regimen; for Ratio of geometric means of AUCτ / Ratio of geometric means of C tr: macitentan + Cs vs macitentan; for Ratio of geometric means of AUCτ: AUC(384h-408h)/AUC(96h-120h); for Ratio of geometric means of C tr: period 2 versus period 1
[4] = human, in vivo
wild-type CHO cells = conditions: 3 μM, incubation for 40 s, 37°C; mean ± SD
OATP1B1 [5] = biological target: T1, OATP1B1; conditions: for Uptake into OATP1B1 over-expressing cells: 3 μM, incubation for 40 s, 37°C, mean ± SD; for Difference in uptake rate between wild-type and OATP over-expressing cells: OATP1B1, different concentrations tested (Fig. 6)
OATP1B3 [6] = biological target: T2, OATP1B3 (Homo sapiens, UniProt Q9NPD5); conditions: for Uptake into OATP1B3 over-expressing cells: 3 μM, incubation for 40 s, 37°C, mean ± SD; for Difference in uptake rate between wild-type and OATP over-expressing cells: OATP1B3, different concentrations tested (Fig. 6)
OATP1B1 [7] = biological target: T1, OATP1B1; conditions: OATP inhibition IC50 versus free plasma concentration
clinical [8] = conditions: human, plasma, oral, AUCτ, part A, macitentan + Cs, 384–408 h (day 17 of period 2), steady-state, geometric mean (95% CI)
[9] = cited from earlier work
[10] = cited from earlier work; remark: listed apart in the source
[11] = strong CYP3A4 inhibitor; cited from earlier work
OATP1B3 [12] = biological target: T2, OATP1B3
clinical [13] = conditions: human, in vivo, AUCτ
[14] = tested on: endothelin ETA and ETB receptor; conditions: dual ERA; cited from earlier work
[15] = macitentan + Cs versus macitentan alone
[16] = part A, macitentan + Cs, 384–408 h (day 17 of period 2), geometric mean (95% CI)
[17] = part A, macitentan alone, 96–120 h (day 5 of period 1), geometric mean (95% CI)

T2 sequence (Q9NPD5 whole entry): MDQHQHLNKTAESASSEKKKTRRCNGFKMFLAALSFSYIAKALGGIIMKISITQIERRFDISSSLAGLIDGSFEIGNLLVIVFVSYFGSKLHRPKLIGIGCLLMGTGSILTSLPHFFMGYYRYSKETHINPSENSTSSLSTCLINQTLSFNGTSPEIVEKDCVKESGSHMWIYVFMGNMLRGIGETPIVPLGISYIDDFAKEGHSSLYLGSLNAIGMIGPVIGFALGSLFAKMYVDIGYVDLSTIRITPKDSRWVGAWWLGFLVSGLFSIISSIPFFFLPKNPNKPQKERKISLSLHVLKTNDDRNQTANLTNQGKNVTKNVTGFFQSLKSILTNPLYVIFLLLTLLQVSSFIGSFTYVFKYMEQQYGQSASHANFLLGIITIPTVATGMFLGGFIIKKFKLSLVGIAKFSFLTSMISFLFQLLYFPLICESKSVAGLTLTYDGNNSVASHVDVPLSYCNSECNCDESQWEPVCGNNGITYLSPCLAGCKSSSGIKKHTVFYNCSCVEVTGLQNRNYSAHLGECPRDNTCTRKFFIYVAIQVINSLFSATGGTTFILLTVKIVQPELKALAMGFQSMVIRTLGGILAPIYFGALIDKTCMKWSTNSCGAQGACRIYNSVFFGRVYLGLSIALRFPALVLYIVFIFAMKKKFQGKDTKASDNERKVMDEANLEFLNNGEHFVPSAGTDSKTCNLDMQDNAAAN
T1 sequence (Q9Y6L6 whole entry): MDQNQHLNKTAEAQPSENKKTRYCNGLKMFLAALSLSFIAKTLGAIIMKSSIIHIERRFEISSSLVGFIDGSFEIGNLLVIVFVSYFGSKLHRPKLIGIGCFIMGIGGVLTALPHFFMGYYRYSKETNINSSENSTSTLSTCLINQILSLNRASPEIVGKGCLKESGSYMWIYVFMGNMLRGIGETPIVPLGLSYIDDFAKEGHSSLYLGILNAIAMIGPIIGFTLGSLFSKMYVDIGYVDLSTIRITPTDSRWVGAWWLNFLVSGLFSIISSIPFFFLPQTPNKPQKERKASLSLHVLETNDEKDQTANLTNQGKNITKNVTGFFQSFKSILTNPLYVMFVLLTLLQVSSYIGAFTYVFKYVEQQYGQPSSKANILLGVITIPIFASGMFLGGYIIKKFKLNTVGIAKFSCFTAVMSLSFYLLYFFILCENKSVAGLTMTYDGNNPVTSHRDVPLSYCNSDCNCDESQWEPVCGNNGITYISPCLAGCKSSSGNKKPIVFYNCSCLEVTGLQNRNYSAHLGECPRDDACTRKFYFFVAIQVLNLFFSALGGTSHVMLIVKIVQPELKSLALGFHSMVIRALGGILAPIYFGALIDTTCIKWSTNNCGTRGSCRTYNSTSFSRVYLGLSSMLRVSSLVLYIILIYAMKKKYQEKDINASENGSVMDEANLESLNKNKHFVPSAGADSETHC

COc1ccccc1Oc1c(NS(=O)(=O)c2ccc(C(C)(C)C)cc2)nc(-c2ncccn2)nc1OCCO [bosentan]
Increase in exposure in the presence of Cs [1]: 30 fold

CCCNS(=O)(=O)Nc1ncnc(OCCOc2ncc(Br)cn2)c1-c1ccc(Br)cc1 [Macitentan]
IC50 (OATP1B1 [2]): 6.3 ± 0.7 µM
Tolerability ([3]; co-administered with Cs, healthy male subjects): well tolerated
Total plasma concentration at steady-state [3]: approximately 0.63 μM
Increase of steady-state AUCτ in the presence of Cs [3, 15]: 10%
Ratio of geometric means of AUCτ ([3]; part A): 1.10^a ng·h/mL
Ratio of geometric means of C tr ([3]; part A): 1.38^a ng·h/mL
C tr [3, 16]: 220 (176, 274) ng/mL
C tr [3, 17]: 159 (121, 209) ng/mL
Subjects affected by treatment-emergent AEs ([3]; part A, period 1 (macitentan alone), 10 subjects): 30%
Decrease of steady-state AUCτ in the presence of rifampin [4]: 79%
Ratio of geometric means of AUCτ [4]: 0.21^a ng·h/mL
Ratio of geometric means of C tr [4]: 0.07^a ng·h/mL
Reduction in exposure in the presence of rifampin [4]: approximately four-fold
Tolerability [4]: well tolerated
Uptake into wild-type cells (wild-type CHO cells): 346 ± 3 pmol/mg
Uptake into OATP1B1 over-expressing cells (OATP1B1 [5]): 362 ± 6 pmol/mg
Difference in uptake rate between wild-type and OATP over-expressing cells (OATP1B1 [5]): No marked difference
Uptake into OATP1B3 over-expressing cells (OATP1B3 [6]): 387 ± 11 pmol/mg
Difference in uptake rate between wild-type and OATP over-expressing cells (OATP1B3 [6]): No marked difference
Free steady-state plasma concentration lower than the lowest IC50 determined (OATP1B1 [7]): around 2,490 fold
AUC (clinical [8]): 7560 ng·h/mL
Time to maximum plasma concentrations after administration ([9]; in humans): approximately 8 h
elimination half-life (t 1/2) ([9]; in humans): approximately 16 h
Tolerability ([9]; single-ascending dose study, doses of up to 300 mg): well tolerated
Binding to human plasma proteins in vitro [10]: 99.6%
Increase of AUC0–∞ in the presence of ketoconazole [11]: approximately two-fold

CCCNS(=O)(=O)Nc1ncnc(OCC(=O)O)c1-c1ccc(Br)cc1 [ACT-373898]
Increase of steady-state AUCτ in the presence of Cs [3, 15]: 7%
Ratio of geometric means of AUCτ ([3]; part A): 1.07^a ng·h/mL
Ratio of geometric means of C tr ([3]; part A): 1.12^a ng·h/mL
AUCτ ([3]; part A, macitentan + Cs, 384–408 h (day 17 of period 2), steady-state, plasma, geometric mean (95% CI)): 568 (432, 747) ng·h/mL
C tr [3, 16]: 20 (15, 26) ng/mL
C tr [3, 17]: 17 (13, 24) ng/mL
Decrease of steady-state AUCτ in the presence of rifampin [4]: 64%
Ratio of geometric means of AUCτ [4]: 0.36^a ng·h/mL
Ratio of geometric means of C tr [4]: 0.14^a ng·h/mL

NS(=O)(=O)Nc1ncnc(OCCOc2ncc(Br)cn2)c1-c1ccc(Br)cc1 [ACT-132577]
IC50 (OATP1B1 [2]): 19.9 ± 1.4 µM
IC50 (OATP1B3 [12]): 51.6 ± 3 µM
Total plasma concentration at steady-state [3]: ~1.5 µM
Systemic exposure in humans relative to macitentan (higher) ([3]; in humans): 2.5 fold
Decrease of steady-state AUCτ in the presence of Cs [3, 15]: 3%
Ratio of geometric means of AUCτ ([3]; part A): 0.97 ng·h/mL
Ratio of geometric means of C tr ([3]; part A): 1.02 ng·h/mL
C tr [3, 16]: 640 (550, 745) ng/mL
C tr [3, 17]: 626 (547, 717) ng/mL
AUCτ [4]: 14,798 (13,216, 16,569) ng·h/mL
Decrease of steady-state AUCτ in the presence of rifampin [4]: 0.3%
Ratio of geometric means of AUCτ [4]: 1.00 ng·h/mL
Ratio of geometric means of C tr [4]: 0.83^a ng·h/mL
Uptake into wild-type cells (wild-type CHO cells): 214 ± 11 pmol/mg
Uptake into OATP1B1 over-expressing cells (OATP1B1 [5]): 237 ± 7 pmol/mg
Difference in uptake rate between wild-type and OATP over-expressing cells (OATP1B1 [5]): No marked difference
Uptake into OATP1B3 over-expressing cells (OATP1B3 [6]): 288 ± 10 pmol/mg
Difference in uptake rate between wild-type and OATP over-expressing cells (OATP1B3 [6]): No marked difference
Free steady-state plasma concentration lower than the lowest IC50 determined (OATP1B1 [7]): around 2,490 fold
AUC (clinical [8]): 16400 ng·h/mL
AUC (clinical [13]): 14800 ng·h/mL
elimination half-life (t 1/2) ([9]; in humans): approximately 48 h
Binding to human plasma proteins in vitro [10]: 99.5%
Potency in vitro relative to macitentan (less potent) [14]: approximately five-fold
